Patent US20130199313A1, “METHOD FOR EVALUATING THE SOLUBILITY OF A CRYSTALLINE SUBSTANCE IN A POLYMER” (Abbott GmbH & Co, KGW, priority 2010, published 2013)

Key:
[1] = Annealing/DSC method for solubility of a crystalline substance in a polymer; type: physicochemical; conditions: 40 and 50% w/w IMC in PVP/VA, annealing vs scanning method
Experimental: Solute-polymer mixtures of desired concentrations were prepared by weighing the components. […] In a typical procedure, 0.5-1 g solute/polymer powder was milled at 10 Hz. Each cycle of milling was 2 min, followed by a 2 min cool-down. The cycle was repeated to achieve a desired milling time (2-60 min).
For annealing, 5-10 mg of sample was packed into a Tzero hermetic aluminum pan with three pin holes made in the lid to allow the escape of moisture and held isothermally at a desired temperature for as long as 600 minutes. Shorter annealing time was used if the system could apparently achieve equilibrium sooner.
Differential scanning calorimetry (DSC) was conducted using a TA Instruments DSC Q2000 at 10° C./min to determine whether residual crystals remain after annealing, i.e. whether a dissolution endotherm can be identified.

[2] = Flory-Huggins fit of solute activity from annealing-method solubility data (interaction parameter χ); type: physicochemical; conditions: polymer PVP K-12, Flory-Huggins fit
Experimental: The solute activity a1 of the drug in the saturated solution was calculated from the solubility of the crystalline drug in the polymer as follows:
In a1=(ΔHm/R)(1/Tm−1/T) (1)
where Tm is the melting point of the pure drug, ΔHm is its molar heat of melting, and T is the temperature at which the drug's solubility is measured (or its depressed melting point). […] According to the Flory-Huggins theory, the solute activity is given by
where v1 and v2 are the solute (drug) and solvent (polymer) volume fractions (v1+v2=1), x is the molar volume ratio of the polymer and the drug, and χ□ is the solute-solvent interaction parameter.
To the extent the reasonable fitting in FIG. 4 justifies the use of the Flory-Huggins model, the interaction parameter χ (equation 1) could be obtained.

[3] = polymer PVP K-12; cited from earlier work

Structure (SMILES): COc1ccc2c(c1)c(CC(=O)O)c(C)n2C(=O)c1ccc(Cl)cc1 [IMC, indomethacin]
- solution temperature below that obtained with the scanning method [1]: approximately 7 °C
- solute-solvent interaction parameter χ as determined with the method of the present invention [2]: −8.2 ± 0.6
- solute-solvent interaction parameter χ as determined by Marsac et al. [3]: −0.82
